Results published in PMC10179701, “Towards Protection of Nucleic Acids from Herbicide Attack: Self-Assembly of Betaines Based on Pillar[5]arene with Glyphosate and DNA” (International Journal of Molecular Sciences, 2023).
Values joined by “and” are separate entries in the source; they are usually repeats but may differ in a detail not shown here. Equal entries are not always repeated.

Key:
[1] = Dynamic light scattering of macrocycle aggregates in water; format: physicochemical; conditions: H2O, 298 K
Experimental: The next stage of the work was the study of aggregation properties of both previously synthesized ester derivatives of amino acids 1 and 2, and macrocyclic betaine derivatives 3 and 4 by dynamic light scattering (DLS). The study was carried out in water in the 1 × 10^–6–1 × 10^–4 M concentration range (Figures S11–S22). The size of associates increases with decreasing macrocycle 1 concentration in solution (Table 1). A different pattern is observed for betaine derivative 3. Thus, the particles become coarser, and the polydispersity index (PDI) of the systems increased with an increase in compound 3 concentration, which is probably due to the formation of β-sheets by oligopeptide substituents. The presence of two oppositely charged fragments in one substituent leads to the fact that compound 3 becomes similar to surfactant molecules in terms of its aggregation properties.

[2] = Dynamic light scattering of (macrocycle-DNA)-GIS associates in Tris-HCl buffer; format: physicochemical; conditions: CPA 3 × 10^–6 M, CDNA 2.5 × 10^–7 M, CGIS 3 × 10^–6 M
Text: The obtained (macrocycle-DNA)-GIS associates were also studied by DLS in Tris-HCl buffer solution. The concentration of each component of the mixture was the same as in the experiments performed by UV-Vis spectroscopy (CPA = 3 × 10^–6 M, CDNA = 2.5 × 10^–7 M, CGIS = 3 × 10^–6 M). The formation of the stable aggregates (d = 183 ± 5 nm, PDI = 0.19, and ζ = –22.2 mV) was found only for the system based on macrocycle 2 with phenylalanine ester fragments (Figure S33). […] This, apparently, leads to the formation of stable aggregates in the case of the three-component (macrocycle-DNA)-GIS systems. The associate’s formation for three-component (2–DNA)–GIS system was additionally confirmed by TEM (Figure 8). It was shown that spherical nanosized particles with sizes close to those determined by DLS are formed.

[3] = Transmission electron microscopy of aggregates; format: physicochemical; conditions: 1 × 10^−4 M in water
Text: The nanosized aggregates formed by macrocycle 2 were studied by transmission electron microscopy (TEM). The formation of the spherical nanosized particles with sizes close to those determined by DLS was confirmed.

A549 cells [4] = assay: MTT test, A549 cells
Experimental: (§1) The next stage of this work was the study of pillar[5]arenes 1–4 ability to inhibit the viability and proliferative activity of embryonic lung epithelial (LEC) and human lung adenocarcinoma (A549) cells using the MTT test.
(§2) Further, the ability of GIS to inhibit the viability and proliferative activity of LEC and A549 cells was studied by the MTT test. […] The average inhibitory concentration (IC50) was calculated for GIS (Table 3). […]
(§3) 1.6. Cytotoxicity of pillar[5]arenes 1–4, GIS and their mixtures on A549 and LEC Cell Lines […]
(§4) activity of LEC cells and A549 cells was investigated using the MTT test according to [2]. A549 – human alveolar adenocarcinoma cell line (ATCC, Rockville, Maryland, USA) and cow embryo lung epithelial (LEC) cells (Animal Cell Culture Collection of Russian Academy of Agricultural Science, Kazan, Russia) were cultured in DMEM (GIBCO, Waltham, MA, USA) medium supplemented with 10% serum and 100 units/mL of penicillin (PanEco, Moscow, Russia) and streptomycin (PanEco, Moscow, Russia) in a humidified atmosphere with 5% CO2 at 37 °C. Cells were seeded in 96‐well plates at a concentration of 10^4 cells/well. After 24 h of cultivation, the medium was removed from the wells and replaced with a fresh one with the addition of the test substances. The volume of the culture medium in the wells was 100
(§5) μL. After 24 h incubation of cells in the presence of substances, the medium in the wells was replaced with a fresh one containing MTT reagent at a final concentration of 0.5 mg/mL. The cells were incubated with MTT for 4 h at 37 °C in an atmosphere of 5% CO2. Then, the medium was aspirated from the wells and 100 μL of dimethyl sulfoxide was added. Probes were incubated at 37 °C for 15 min in the dark for the formazan crystals to dissolve. The optical density of the formazan solution in the wells was measured using a plate reader (BioRad xMarkTM Microplate Spectrophotometer, USA) at a wavelength of 570 nm.
(§6) Three series of experiments were carried out with at least 8 replications for each variant in the series. […]

LEC cells [5] = assay: MTT test, LEC cells
Experimental: as §1, §2, §3, §4, §5, §6

A549 cells [6] = assay: Apoptosis induction by flow cytometry (DiOC6/PI), A549 cells; format: cell-based, human; conditions: A549, 25 μg/mL, 24 h
Experimental: (§7) The cytotoxic effect of pillar[5]arene 2 containing ester fragments of phenylalanine is probably due to the stable aggregates’ formation (Table 1). […] The agent concentration of 25 μg/mL was chosen for the experiment. […] The apoptosis-inducing effect of compound 2 on A549 and LEC cells turned out approximately the same. […]
(§8) buffer solution. The UV spectra of the solutions were then recorded. The stability constant of complex was calculated by Bindfit. Three independent experiments were carried out for each series. […]
(§9) volume of 3 mL with Tris‐HCl buffer solution. The UV spectra of the solutions were then recorded. The stability constant of each complex was calculated by Bindfit. Three independent experiments were carried […]
(§10) stability constant of complex was calculated by Bindfit. Three independent experiments were carried out […]
(§11) humidified atmosphere with 5% CO2 at 37 °C. […]
(§12) fresh one with the addition of the test substances.
(§13) Then, the medium was aspirated from the wells and 100 μL of dimethyl sulfoxide was added. […]
(§14) the formazan crystals to dissolve.
(§15) BD FACSCanto II flow cytometer. […]
(§16) humidified atmosphere with 5% CO2. […]
(§17) substances. […] After 24 h of incubation cells were […]

LEC cells [7] = assay: Apoptosis induction by flow cytometry (DiOC6/PI), LEC cells; format: cell-based, cow; conditions: 25 μg/mL, 24 h
Experimental: as §7, §8, §9, §10, §11, §12, §13, §14, §15, §16, §17

A549 cells [8] = assay: MTT assay, combined action of macrocycles with GIS on A549 cells; format: cell-based, human; conditions: A549, pillararene 1 × 10^–5 M with GIS 3.47 × 10^–2 M
Experimental: The ability to inhibit the viability and proliferative activity of A549 cells of macrocycles 1–4 in the presence of GIS was studied using the MTT assay. […] The developed approach opens up the possibility of creating pillar[5]arene-based herbicide antidotes. […]
as §12
Then, the medium was aspirated from the wells
and 100 μL of dimethyl sulfoxide was added.
the formazan crystals to dissolve. […]
as §17

polydispersity index (PDI) ([1]; 1 × 10^–4 M): 0.24
size of aggregates d ([1]; 1 × 10^–4 M): 179 nm and 179 ± 8 nm
zeta potential ζ ([1]; 1 × 10^–4 M): +15.9 mV
polydispersity index (PDI) ([1]; 1 × 10^–5 M): 0.21
size of aggregates d ([1]; 1 × 10^–5 M): 157 ± 2 nm
zeta potential ζ ([1]; 1 × 10^–5 M): +31.6 mV
polydispersity index (PDI) ([1]; 1 × 10^–6 M): 0.28
size of aggregates d ([1]; 1 × 10^–6 M): 144 nm and 144 ± 7 nm
zeta potential ζ ([1]; 1 × 10^–6 M): +12.5 mV
PDI of three-component (macrocycle-DNA)-GIS system [2]: 0.19
size of aggregates d of three-component (macrocycle-DNA)-GIS system [2]: 183 ± 5 nm
zeta potential ζ of three-component (macrocycle-DNA)-GIS system [2]: –22.2 mV
average diameter of particles (TEM) [3]: 50 nm
IC50 (A549 cells [4]; A549, MTT, 24 h): 29.67 mg/L
SMILES: CCOC(=O)[C@H](Cc1ccccc1)NC(=O)C[N+](C)(C)CCCNC(=O)COc1cc2c(OCC(=O)NCCC[N+](C)(C)CC(=O)N[C@@H](Cc3ccccc3)C(=O)OCC)cc1Cc1cc(OCC(=O)NCCC[N+](C)(C)CC(=O)N[C@@H](Cc3ccccc3)C(=O)OCC)c(cc1OCC(=O)NCCC[N+](C)(C)CC(=O)N[C@@H](Cc1ccccc1)C(=O)OCC)Cc1cc(OCC(=O)NCCC[N+](C)(C)CC(=O)N[C@@H](Cc3ccccc3)C(=O)OCC)c(cc1OCC(=O)NCCC[N+](C)(C)CC(=O)N[C@@H](Cc1ccccc1)C(=O)OCC)Cc1cc(OCC(=O)NCCC[N+](C)(C)CC(=O)N[C@@H](Cc3ccccc3)C(=O)OCC)c(cc1OCC(=O)NCCC[N+](C)(C)CC(=O)N[C@@H](Cc1ccccc1)C(=O)OCC)Cc1cc(OCC(=O)NCCC[N+](C)(C)CC(=O)N[C@@H](Cc3ccccc3)C(=O)OCC)c(cc1OCC(=O)NCCC[N+](C)(C)CC(=O)N[C@@H](Cc1ccccc1)C(=O)OCC)C2.[Br-].[Br-].[Br-].[Br-].[Br-].[Br-].[Br-].[Br-].[Br-].[Br-] [Compound 2]
concentration at which viability was reduced (A549 cells [4]; A549): ≥ 5 µg/mL
concentration at which viability was reduced (LEC cells [5]): ≥ 5 µg/mL
IC50 (LEC cells [5]; MTT, 24 h): 28.16 mg/L
proportion of living cells (Live, percentage of stained cells) (A549 cells [6]): 74.8%
proportion of living cells (Live, percentage of stained cells) (LEC cells [7]): 72.7%
change of toxicity on combined action with GIS (A549 cells [8]): increase in toxicity
